Experimental data taken from the NIST ThermoML archive (doi:10.1021/je025651k).

What was measured:
[1] = Liquid; for mass density: 298.15 K, 101.33 kPa
[2] = refractive index (Na D-line) (dimensionless); details: 298.15 K, 101.33 kPa, Liquid

CCC(O)CC [3-pentanol]
Details | mass density [kg/m3] | refractive index | vapor or sublimation pressure [kPa]
[1], 293.8 K | – | – | 0.84
[1], 300.8 K | – | – | 1.33
[1], 308 K | – | – | 2.11
[1], 315.4 K | – | – | 3.35
[1], 323 K | – | – | 5.31
[1], 331.1 K | – | – | 8.41
[1], 339.8 K | – | – | 13.33
[1], 349.3 K | – | – | 21.13
[1], 359.4 K | – | – | 33.49
[1], 370.5 K | – | – | 53.08
[1], 382.9 K | – | – | 84.13
[1], 388.38 K | – | – | 101.32
[1], 388.7 K | – | – | 101.32
[1], vibrating tube | 815.5 | – | –
[2], Abbe refractometer | – | 1.4087 | –

CCCC(C)=O [pentan-2-one]
Details | mass density [kg/m3] | refractive index | vapor or sublimation pressure [kPa]
[1], 329.8 K | – | – | 20.44
[1], 336.3 K | – | – | 26.55
[1], 342.1 K | – | – | 33.04
[1], 347.2 K | – | – | 39.99
[1], 351.5 K | – | – | 46.57
[1], 355.5 K | – | – | 53.47
[1], 358.9 K | – | – | 59.95
[1], 362 K | – | – | 66.61
[1], 365 K | – | – | 73.28
[1], 367.7 K | – | – | 79.91
[1], 370.3 K | – | – | 86.76
[1], 372.6 K | – | – | 93.11
[1], 375 K | – | – | 100.06
[1], 375.09 K | – | – | 101.32
[1], 377.2 K | – | – | 106.83
[1], 379.3 K | – | – | 113.61
[1], 381.2 K | – | – | 120.11
[1], 383 K | – | – | 126.54
[1], 384.8 K | – | – | 133.92
[1], vibrating tube | 801.47 | – | –
[2], Abbe refractometer | – | 1.3881 | –

CCC(=O)CC [pentan-3-one]
Details | mass density [kg/m3] | refractive index | vapor or sublimation pressure [kPa]
[1], 290 K | – | – | 3.42
[1], 309.9 K | – | – | 9.21
[1], 320 K | – | – | 14.22
[1], 330.6 K | – | – | 22.33
[1], 341.4 K | – | – | 33.64
[1], 350.4 K | – | – | 46.5
[1], 361.3 K | – | – | 66.6
[1], 367.5 K | – | – | 82.09
[1], 371 K | – | – | 90.18
[1], 371.5 K | – | – | 91.82
[1], 374.75 K | – | – | 101.32
[1], 375.2 K | – | – | 102.52
[1], Vibrating tube method | 809.43 | – | –
[2], Standard Abbe refractometry | – | 1.39 | –
